“Also recorded” adds a separate entry of the source.
What was measured:
HLA-E [1] = assay: HLA-E surface stabilization assay with RMA-S/HLA-E cells; type: cell-based, human; conditions: peptide 3-300 µM (Fig. 3: 30 µM) in OptiMEM, 16 h, 37 °C, anti-HLA-E 3D12, flow cytometry, n = 4 replicate experiments
Description: To probe top-predicted proteome-derived peptides (Tables 2 and 3) for HLA-E binding, we assessed their ability to stabilize surface-expressed HLA-E on RMA-S/HLA-E cells, a TAP-deficient mouse cell line engineered to express HLA-E and human β2M (Fig. 3 and Supplemental Fig. 8)[47].
Fig. 3 Peptide stabilization of HLA-E surface expression. Assessment of peptide-HLA-E binding via HLA-E surface stabilization assay with RMA-S/HLA-E cells incubated with 30 μM peptide. HLA-E expression is detected with an anti-HLA-E antibody. Measurements from n = 4 replicate experiments are shown, with solid black lines indicating mean values. […] Source data are provided as a Source Data file.
RMA-S/HLA-E cells were incubated with serial dilutions of peptides (3–300 µM, Genscript) in OptiMEM (ThermoFisher) for 16 h at 37 °C. Cells were washed with PBS, stained for HLA-E (Clone 3D12, Biolegend, 1:200 dilution) for 15 min at room temperature and analyzed by flow cytometry (analysis in FlowJo version 10). Peptide UBAC2_275-279 was ordered as a 5mer peptide (WNRLF) given the similarity with other WN peptides and hypothesis of a truncated peptide binding in the HLA-E groove. […] Measurements from replicate experiments are plotted in Fig. 3 and Supplemental Fig. 8.

NKG2C+ NK cells = assay: NK cell activation assay with peptide-pulsed RMA-S/HLA-E cells; type: cell-based, human
Description: (§1) Fig. 4 NK cell stimulation assays. Assessment of effects of peptides on NK cell activity through incubation of NK cells, peptides, and (A) K562/HLA-E or (B) RMA-S/HLA-E target cells. […] Replicates for individual peptides are from different donors, with solid black lines indicating mean values. […] Representative gating for NKG2A^+/NKG2C^- and NKG2A^-/NKG2C^+ NK cells is shown in Supplemental Fig. 14. Source data are provided as a Source Data file.
In contrast to K562 cell lines which are targets for human NK cells, RMA-S cells (a TAP-deficient mouse cell line)[48] are inert to human NK cells and thus will not activate NK cells absent engagement of an activating receptor on the NK cells. […] We performed additional NK cell activation assays with RMA-S/HLA-E cells (Fig. 4B).
(§2) All analyses of human data were carried out in compliance with the relevant ethical regulations. Healthy blood donors gave informed consent at DRK Blutspendedienst Nord-Ost, Dresden, Germany, and buffy coats were obtained as approved by Charité ethics committee (EA4/059/17). PBMCs were isolated from human CMV-seropositive buffy coats by density centrifugation over Ficoll Paque Plus (GE Healthcare) and screened for the presence of NKG2C^+ NK cell expansions by flow cytometry to have sufficient frequencies of single-positive cells for parallel assessment of activation and inhibition via HLA-E[47]. Total NK cells from donors with NKG2C^+ expansions (>10% NKG2A^-/NKG2C^+ NK cells) were enriched with CD56 microbeads (Miltenyi Biotec) and cryopreserved in FBS with 10% v/v DMSO. After thawing, NK cells were washed with complete medium, stained with antibodies and Fixable Viability Dye eFluor 780 (Thermo Fisher) for 15 min at 4 °C in PBS, sorted as viable CD56^+ CD3^− cells, and rested in complete media overnight. […] Brefeldin A and Monensin (BD Biosciences) were added after a 1 h culture period. After an additional 5 h, the stimulation was stopped by centrifugation at 4 °C. Cells underwent surface staining, followed by fixation and intracellular staining using Inside Stain Kit (Miltenyi Biotec). Samples were analyzed by flow cytometry on an LSR Fortessa (BD Biosciences). Inhibition of NKG2A^+ NK cells and activation of NKG2C^+ NK cells was assessed by gating on the respective single-positive populations (Supplemental Fig. 14). Antibodies are listed in Supplemental Table 1: anti-human CD56 PE/Dazzle 594 (1:200 dilution), CD3 APC-eFluor 780 (1:50 dilution), anti-human CD159a (NKG2A) Biotin REAfinity (1:50 dilution), anti-human CD159c (NKG2C) PE REAfinity (1:100 dilution), anti-human CD107a (LAMP-1) Alexa Fluor 488 (1:400 dilution), anti-human IFN-γ PE-Vio 770 REAfinity (1:50 dilution), anti-human TNF-α Brilliant Violet 605 (1:50 dilution), anti-human CCL3 (MIP-1α) REAfinity (1:25 dilution).

NKG2A-/NKG2C+ NK cells = assay: NK cell activation assay with peptide-pulsed K562/HLA-E cells, NKG2A-/NKG2C+ NK cells; type: cell-based, human; conditions: K562/HLA-E target cells, 300 µM peptide ([…] µM BFAR263-271), E:T 2:1, 6 h; degranulation (CD107a), IFN-γ, TNF, CCL3; flow cytometry
Description: (§3) We hypothesized that our predicted proteome-derived peptides could affect NK cell activation through interactions with CD94/NKG2A and CD94/NKG2C. To investigate, we performed cell-based activation assays on primary NK cells (Fig. 4A). NK cells were co-incubated with peptide-pulsed HLA-E-expressing K562 cells, as described previously. The parental K562 human myelogenous leukemia cell line is a typical target to measure NK cell cytotoxicity and activation, allowing for assessment of both NKG2A-mediated inhibition and NKG2C-mediated activation. […] NKG2A^-/NKG2C^- NK cells served as internal control as these should be unaffected by peptide-HLA-E complexes (Supplemental Fig. 12).
as §1, §2

NKG2A+/NKG2C- NK cells = assay: NK cell activation assay with peptide-pulsed K562/HLA-E cells, NKG2A+/NKG2C- NK cells; type: cell-based, human; conditions: K562/HLA-E target cells, 300 µM peptide ([…] µM BFAR263-271), E:T 2:1, 6 h; degranulation (CD107a), IFN-γ, TNF, CCL3; flow cytometry
Description: as §3, §1, §2

HLA-E [2] = assay: Prometheus differential scanning fluorimetry of HLA-E with peptide; type: binding, human; conditions: refolded HLA-E*01:03/β2M 9 μg, 50x peptide to MHC ratio, high sensitivity capillary, 1 °C per minute 20-95 °C, first inflection point; DMSO control 33.8
Description: Differential scanning fluorimetry (DSF) experiments were performed with a Prometheus NanoTemper NT.48 (Munich, Germany) to measure protein stability, using intrinsic tryptophan fluorescence.
For these experiments, refolded empty HLA-E was generated. Human β2M plus a poly-histidine tag and HLA-E*01:03 extracellular α1, α2, and α3 domains plus an AviTag biotinylation tag were separately codon optimized for E. coli and cloned into the bacterial expression vector pET28a. Inclusion bodies for HLA-E and β2M were made in BL21 E. coli. Inclusion bodies were purified, homogenized, and dissolved, including denaturation in 8 M urea solution. Before refolding, each IB was mixed with an equal volume of Gdn-Cl solution (6 M Guanidine HCl, 500 mM Tris, 2 mM EDTA, 100 mM NaCl) and incubated overnight at 37 °C. β2M was injected dropwise with a 27-gauge needle into refolding buffer (100 mM pH 8.3 Tris, 400 mM L-arginine hydrochloride, 2 mM EDTA, 0.5 mM oxidized glutathione, 5 mM reduced glutathione, 0.2 mM PMSF) and incubated, stirring gently, at 4 °C for 1 h, after which an equal mass of HLA-E heavy chain was similarly injected. This solution incubated at 4 °C overnight, followed by two days of dialysis in 10 mM Tris + 50 mM NaCl. Protein was concentrated in 10 kDa molecular weight cutoff centrifugal concentrators and purified by size exclusion chromatography on an AKTAPURE FPLC (GE Healthcare, Chicago IL), using an S200 column followed by a S75 column.
Individual DSF reactions were set up with 9 μg of MHC and 100×, 50×, or 10× peptide to MHC ratio by molarity (peptides from GenScript). The final reaction volume was 20 μL and reaction mixtures were incubated at room temperature for 20–30 min.
Prometheus excitation power was set such that raw fluorescence counts were between 8000–15000 for each sample. Samples were heated at 1 °C per minute, from 20–95 °C. DSF measurements were taken in duplicate with high-sensitivity and standard capillaries. Melting temperatures were similar for a given peptide across conditions, and representative data from 50x ratio in high sensitivity capillary are presented. A secondary inflection point around 60 °C in most melts is consistent with melting of β2M[76]. […]
Supplemental Figure 9. Differential scanning fluorimetry data generated via Prometheus NanoTemper for predicted peptides with HLA-E. a) Raw 350/330 nm ratios and first derivative for samples. The second inflection point is consistent with β2M unfolding. b) Summary of Tm values for the first inflection point called by Prometheus software for these samples. […]

CD94/NKG2A = target: T1, CD94/NKG2A (Homo sapiens, UniProt P26715+Q13241); assay: Steady-state SPR of peptide-HLA-E single chain trimers with CD94/NKG2A; type: binding; conditions: SPR with CD94/NKG2A and CD94/NKG2C, Fig. 5B; taken as lower stability of the peptide-HLA-E complex
T1 construct: The C-terminus of human NKG2A or NKG2C ectodomain was connected via a GGSGGS linker to human CD94 ectodomain; AviTag biotinylation tag (C); poly-histidine tag (C); made in house; host or cells: baculovirus, High Five (Hi5) insect cells
Description: Specifically, we measured CD94/NKG2A and CD94/NKG2C affinity for HLA-E complexed with three sets of peptides. […] Third, we included […] peptide as a positive control.
Steady-state surface plasmon resonance experiments were performed with a Biacore T200 instrument. CD94/NKG2x in HBS-EP+ buffer was injected as analyte in a concentration range of 0.1 μM to 102.4 μM and flow rate of 10 μL/min at 25 °C. Data was fit with Prism 9.4 (GraphPad Software Inc; San Diego CA) to a “one site, specific binding” model. Sensorgrams are included in Supplemental Fig. 13.
For investigating WN peptides, biotinylated pMHC was immobilized at approximately 400 Response Units (RU) on a Series S SA sensor chip (Cytiva). […] CD94/NKG2A was injected followed by CD94/NKG2C.
For investigating human-derived peptides, Series S CM5 chips (Cytiva) were coupled to neutravidin and utilized. Biotinylated pMHC was immobilized at approximately 400 RU. On one chip, […] CD94/NKG2A was injected followed by CD94/NKG2C. On a second chip, PISD55-63 HLA-E SCT, AKAP6_388-396 HLA-E SCT, GTF3C5_293-301 HLA-E SCT, and reference HLA-DR401 were immobilized. CD94/NKG2C was injected followed by CD94/NKG2A. Rmax, fit values were calculated by Biacore software. Rmax, theoretical values were calculated using the analyte/ligand mass ratio (0.66) multiplied by the amount of ligand coupled to the chip.

T1 sequence (Q13241 whole entry, looked up, the tested form may be a part): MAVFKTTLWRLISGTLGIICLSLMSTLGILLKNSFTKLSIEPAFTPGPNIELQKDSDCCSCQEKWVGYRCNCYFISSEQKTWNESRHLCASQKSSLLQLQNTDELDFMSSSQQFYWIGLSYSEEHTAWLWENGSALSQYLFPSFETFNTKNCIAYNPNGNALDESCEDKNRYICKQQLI
T1 sequence (P26715 whole entry, looked up, the tested form may be a part): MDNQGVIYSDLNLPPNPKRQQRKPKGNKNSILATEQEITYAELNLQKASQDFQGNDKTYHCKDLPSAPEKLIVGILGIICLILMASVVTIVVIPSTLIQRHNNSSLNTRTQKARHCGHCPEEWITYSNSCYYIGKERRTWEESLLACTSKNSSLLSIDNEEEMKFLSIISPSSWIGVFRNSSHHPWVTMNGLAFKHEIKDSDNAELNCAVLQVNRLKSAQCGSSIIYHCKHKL

Sequence | stabilization of HLA-E surface expression (HLA-E [1]) | NKG2C-mediated NK cell activation (NKG2C+ NK cells) | activating effects on NKG2C+ cells (NKG2A-/NKG2C+ NK cells) | inhibitory effects on NKG2A+ cells (NKG2A+/NKG2C- NK cells) | Tm (HLA-E [2]) | average percent CD107a+ (NKG2C+ NK cells; NKG2C+ NK cells with RMA-S/HLA-E cells, Fig. 4B, stated in author rebuttal) | maximal response units (Rmax) compared to theoretical maximum (CD94/NKG2A)
QMPSRSLLF [CREB3L1_419-427] | strong binding that is weaker than VMAPRTLFL; also recorded: strong stabilization | activation similar to the weaker positive control ([…]) or between the two positive controls | strong activating effects | more moderate inhibitory effects | 46.2 °C |  | 
TGPWRSLWI [GTF3C5_293-301, human peptide from General transcription factor 3C polypeptide 5] | weak but detectable stabilization | detectable activation, though below both positive control examples | clear activating effects | minimal inhibitory effects |  | 11.1% | lower maximal values compared to the theoretical maximum
VLPHRTQFL [UL120_72-80, Merlin, CMV peptide from Membrane protein UL120, strain Merlin] | strong binding that is weaker than VMAPRTLFL; also recorded: strong HLA-E binding | activation similar to the weaker positive control ([…]) or between the two positive controls | strong activating effects | strong inhibitory effects | 45.7 °C |  | 

— PMC10412585 (Nature Communications, 2023)
